In the test the target is T1, chimeric receptor containing the EGFR extracellular domain and intracellular HER2 kinase domain (Homo sapiens, UniProt P04626).
T1 construct: fused on or other part: EGFR ectodomain + HER2 intracellular part, ATP-site indolinones: HER2's kinase
T1 sequence (P04626 720-1255 limits assumed, change not shown): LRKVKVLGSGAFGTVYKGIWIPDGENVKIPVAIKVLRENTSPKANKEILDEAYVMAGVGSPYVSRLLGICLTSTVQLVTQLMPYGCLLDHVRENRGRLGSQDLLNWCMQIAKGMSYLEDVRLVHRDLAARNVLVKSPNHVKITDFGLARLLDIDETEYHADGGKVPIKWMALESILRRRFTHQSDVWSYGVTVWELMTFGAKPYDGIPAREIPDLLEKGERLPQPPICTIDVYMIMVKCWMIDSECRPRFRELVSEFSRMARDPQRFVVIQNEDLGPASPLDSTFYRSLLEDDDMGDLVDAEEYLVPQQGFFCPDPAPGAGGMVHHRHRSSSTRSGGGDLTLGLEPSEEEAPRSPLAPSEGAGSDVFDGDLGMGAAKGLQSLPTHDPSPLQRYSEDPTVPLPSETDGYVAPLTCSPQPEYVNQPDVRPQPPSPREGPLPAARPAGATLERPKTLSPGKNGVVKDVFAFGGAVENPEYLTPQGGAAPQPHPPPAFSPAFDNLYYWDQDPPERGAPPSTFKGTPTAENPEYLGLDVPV
The test can be described thus: EGF Receptor-HER2 chimeric receptor assay in whole cells (ELISA). The format is cell-based. The note with it: read-out: HER-2 kinase IC50. As for the experimental part: EGF Receptor-HER2 Chimeric Receptor Assay In Whole Cells.
HER2 kinase activity in whole EGFR-NIH3T3 cells are measured as described below:
• a. […] 05-101 (UBI) (a monoclonal antibody recognizing an EGFR extracellular domain). • c. Anti-phosphotyrosine antibody (anti-Ptyr) (polyclonal) (see, Fendley, et al., supra). • d. Detection antibody: Goat anti-rabbit IgG horseradish peroxidase conjugate, TAGO, Inc., Burlingame, Calif. • e. TBST buffer:
• h. Stock reagents of:
Pre-coat ELISA Plate • 1. […] Coated plates are good for up to 10 days when stored at 4° C. • 2. On day of use, remove coating buffer and replace with 100 μl blocking buffer (5% Carnation Instant Non-Fat Dry Milk in PBS). Incubate the plate, shaking, at room temperature (about 23° C. to 25° C.) for 30 minutes. Just prior to use, remove blocking buffer and wash plate 4 times with TBST buffer.
Seeding Cells • 1. An NIH3T3 cell line overexpressing a chimeric receptor containing the EGFR extracellular domain and intracellular HER2 kinase domain can be used for this assay. • 2. Choose dishes having 80-90% confluence for the experiment. Trypsinize cells and stop reaction by adding 10% fetal bovine serum. Suspend cells in DMEM medium (10% CS DMEM medium) and centrifuge once at 1500 rpm, at room temperature for 5 minutes. • 3. Resuspend cells in seeding medium (DMEM, 0.5% bovine serum), and count the cells using trypan blue. Viability above 90% is acceptable. Seed cells in DMEM medium (0.5% bovine serum) at a density of 10,000 cells per well, 100 μl per well, in a 96 well microtiter plate. Incubate seeded cells in 5% CO2. at 37° C. for about 40 hours.
Assay Procedures • 1. Check seeded cells for contamination using an inverted microscope. Dilute drug stock (10 mg/ml in DMSO) 1:10 in DMEM medium, then transfer 5 μl to a […] well for a final drug dilution of 1:200 and a final DMSO concentration of 1%. Control wells receive DMSO alone. Incubate in 5% CO2 at 37° C. for two hours. • 2. Prepare EGF ligand: dilute stock EGF in DMEM so that upon transfer of 10 μl dilute EGF (1:12 dilution), 100 nM final concentration is attained. • 3. Prepare fresh HNTG* sufficient for 100 μl per well, and place on ice.
• 4. After 120 minutes incubation with drug, add prepared […] ligand to cells, 10 μl per well, to a final concentration of 100 nM. Control wells receive DMEM alone. Incubate with shaking, at room temperature, for 5 minutes. • 5. Remove drug, EGF, and DMEM. Wash cells twice with PBS. Transfer HNTG* to cells, 100 μl per well. Place on ice for 5 minutes. Meanwhile, remove blocking buffer from other ELISA plate and wash with TBST as described above. • 6. With a pipette tip securely fitted to a micropipettor, scrape cells from plate and homogenize cell material by repeatedly aspirating and dispensing the HNTG* lysis buffer. Transfer lysate to a coated, blocked, and washed ELISA plate. Incubate shaking at room temperature for one hour. • 7. Remove lysate and wash 4 times with TBST. Transfer freshly diluted anti-Ptyr antibody to ELISA plate at 100 μl per well. Incubate shaking at room temperature for 30 minutes in the presence of the anti-Ptyr antiserum (1:3000 dilution in TBST). • 8. Remove the anti-Ptyr antibody and wash 4 times with TBST. Transfer the freshly diluted TAGO anti-rabbit IgG antibody to the ELISA plate at 100 μl per well. Incubate shaking at room temperature for 30 minutes (anti-rabbit IgG antibody: 1:3000 dilution in TBST). • 9. Remove TAGO detection antibody and wash 4 times with TBST. Transfer freshly prepared ABTS/H2O2 solution to ELISA plate, 100 μl per well. Incubate shaking at room temperature for 20 minutes. (ABTS/H2O2 solution: 1.0 μl 30% H2O2 in 10 ml ABTS stock). • 10. Stop reaction by adding 50 μl 5N H2SO4 (optional), and determine O.D. at 410 nm. • 11. The maximal phosphotyrosine signal is determined by subtracting the value of the negative controls from the positive controls. […]
Background: ELISA stands for enzyme-linked immunosorbent assay.
For `COc1ccc(C=C2C(=O)Nc3cc(NC(C)=O)ccc32)cc1-c1cccc(NC(C)=O)c1` (mixture of isomers) [Example 63, N-[3-(3′-Acetylamino-6-methoxybiphenyl-3-ylmethylene)-2-oxo-2,3-dihydro-1H-indol-6-yl]-acetamide], the IC50 was greater than 100 µM.

Take `CC1(C)CCc2cc(C=C3C(=O)Nc4ccc(Br)cc43)ccc2O1` (racemic) [Example 34, 5-Bromo-3-(2,2-dimethylchroman-6-ylmethylene)-1,3-dihydroindol-2-one]: the IC50 is greater than 100 µM. The figure for `CNS(=O)(=O)c1ccc2c(c1)C(=Cc1[nH]c3ccccc3c1C)C(=O)N2` (racemic) [Example 154, 3-(3-Methyl-1H-indol-2-ylmethylene)-2-oxo-2,3-dihydro-1H-indole-5-sulfonic acid methylamide] is greater than 100 µM; for `COc1c(C(C)C)cc(/C=C2/C(=O)Nc3cc(NC(C)=O)ccc32)cc1C(C)C` [Example 3, N-[3-(3,5-Diisopropyl-4-methoxybenzylidene)-2-oxo-2,3-dihydro-1H-indol-6-yl]-acetamide] it is 6.4 µM; for `COc1c(C(C)C)cc(/C=C2/C(=O)Nc3cc(O)ccc32)cc1C(C)C` [Example 4, 3-(3,5-Diisopropyl-4-methoxybenzylidene)-6-hydroxy-1,3-dihydroindol-2-one] it is 5.8 µM.

Consider `COc1c(C(C)C)cc(/C=C2/C(=O)Nc3ccc(C(C)=O)cc32)cc1C(C)C` [Example 5, 5-Acetyl-3-(3,5-diisopropyl-4-methoxybenzylidene)-1,3dihydroindol-2-one], for which the IC50 is 6.5 µM.

Take `COC(=O)c1ccc2c(c1)/C(=C\c1cc(C(C)C)c(OC)c(C(C)C)c1)C(=O)N2` [Example 6, 3-(3,5-Diisopropyl-4-methoxybenzylidene)-2-oxo-2,3-dihydro-1H-indole-5-carboxylic acid methyl ester]: the IC50 amounted to 15.3 µM.

Consider `COc1ccc(/C=C2/C(=O)Nc3ccccc32)cc1C(C)C` [Example 7, 3-(3-Isopropyl-4-methoxybenzylidene)-1,3-dihydroindol-2-one], for which the IC50 is greater than 100 µM. With `COc1cc(C)c(C=C2C(=O)Nc3ccccc32)cc1C(C)C` [Example 8, 3-(5-Isopropyl-4-methoxy-2-methylbenzylidene)-1,3-dihydroindol-2-one] the figure was 8.36 µM.

Take `COc1cc(C)c(C=C2C(=O)Nc3ccc(Cl)cc32)cc1C(C)C` [Example 9, 5-Chloro-3-(5-isopropyl-4-methoxy-2-methylbenzylidene)-1,3-dihydroindol-2-one]: the IC50 is greater than 100 µM. The figure for `COc1ccc(/C=C2/C(=O)Nc3ccccc32)cc1C1CCCC1` [Example 10, 3-(3-Cyclopentyl-4-methoxybenzylidene)-1,3-dihydroindol-2-one] is 45.8 µM; for `COc1ccc(/C=C2/C(=O)Nc3ccc(F)cc32)cc1C1CCCC1` [Example 11, 3-(3-Cyclopentyl-4-methoxybenzylidene)-5-fluoro-1,3-dihydroindol-2-one] it is 57.3 µM; for `COc1ccc(/C=C2/C(=O)Nc3ccccc32)cc1C1CCCCC1` [Example 12, 3-(3-Cyclohexyl-4-methoxybenzylidene)-1,3-dihydroindol-2-one] it is greater than 100 µM.

Consider `COc1ccc(/C=C2/C(=O)Nc3ccc(Br)cc32)cc1-c1ccccc1` [Example 13, 5-Bromo-3-(6-methoxybiphenyl-3-ylmethylene)-1,3-dihydroindol-2-one], for which the IC50 is greater than 100 µM. On to `O=C1Nc2ccc(Cl)cc2/C1=C\c1ccc2c(c1)CCO2` [Example 14, 5-Chloro-3-(2,3-dihydro-benzofuran-5-ylmethylene)-1,3-dihydroindol-2-one], for which the IC50 came to 22.7 µM. Turning to `CC1(C)CCc2cc(/C=C3/C(=O)Nc4ccc(Cl)cc43)ccc2O1` [Example 15, 5-Chloro-3-(2,2-dimethyl-chroman-6-ylmethylene)-1,3-dihydroindol-2-one], the IC50 came out at 19 µM. For the compound `CC(=O)Nc1ccc2c(c1)NC(=O)/C2=C/c1ccc(OCCN2CCOCC2)c(C2CCCCC2)c1` [Example 16, N-{3-[3-Cyclohexyl-4-(2-morpholin-4-ylethoxy)-benzylidene]-2-oxo-2,3-dihydro-1H-indol-6-yl}-acetamide], the IC50 amounted to 9.9 µM. With `COc1ccc2c(c1)/C(=C\c1cc(C(C)C)c(OC)c(C(C)C)c1)C(=O)N2` [Example 17, 3-(3,5-Diisopropyl-4-methoxybenzylidene)-5-methoxy-1,3-dihydroindol-2-one] the figure was 7.8 µM; with `COc1ccc(/C=C2/C(=O)Nc3cc(NC(C)=O)ccc32)cc1-c1ccsc1` [Example 18, N-[3-(4-Methoxy-3-thiophene-3-ylbenzylidene)-2-oxo-2,3-dihydro-1H-indol-6-yl]-acetamide], 8.4 µM. The figure for `COc1c(C(C)C)cc(/C=C2/C(=O)Nc3ccc(C)cc32)cc1C(C)C` [Example 19, 3-(3,5-Diisopropyl-4-methoxybenzylidene)-5-methyl-1,3-dihydroindol-2-one] is 9.2 µM; for `COc1c(C(C)C)cc(/C=C2/C(=O)Nc3ccc(N)cc32)cc1C(C)C` [Example 20, 5-Amino-3-(3,5-diisopropyl-4-methoxy-benzylidene)-1,3-dihydroindol-2-one] it is 38.6 µM; for `COc1c(C)cc(/C=C2/C(=O)Nc3ccc(Cl)cc32)cc1C` [Example 21, 5-Chloro-3-(4-methoxy-3,5-dimethylbenzylidene)-1,3-dihydroindol-2-one] it is 11.8 µM. With `COc1c(C(C)C)cc(/C=C2/C(=O)Nc3cc(F)ccc32)cc1C(C)C` [Example 22, 3-(3,5-Diisopropyl-4-methoxybenzylidene)-6-fluoro-1,3-dihydroindol-2-one] the figure was 12.4 µM; with `CC1(C)CCc2cc(/C=C3/C(=O)Nc4ccc(F)cc43)ccc2O1` [Example 23, 3-(2,2-Dimethylchroman-6-ylmethylene)-5-fluoro-1,3-dihydroindol-2-one], 33.2 µM. For the compound `CC(C)c1cc(/C=C2/C(=O)Nc3ccc(Cl)cc32)cc(C(C)C)c1OCCN1CCOCC1` [Example 24, 5-chloro-3-[3,5-diisopropyl-4-(2-morpholin-4-ylethoxy)-benzylidene]-1,3-dihydroindol-2-one], the IC50 was 13.6 µM. With `COc1ccc(/C=C2/C(=O)Nc3ccc(CCN4CCOCC4)cc32)cc1-c1ccsc1` [Example 26, 3-(4-Methoxy-3-thiophen-3-ylbenzylidene)-5-(2-morpholin-4-yl-ethyl)-1,3-dihydroindol-2-one] the figure was 15.3 µM; with `COc1cc(C)c(C=C2C(=O)Nc3cc(NC(C)=O)ccc32)cc1C(C)C` [Example 27, N-[3-(5-Isopropyl-4-methoxy-2-methyl-benzylidene)-2-oxo-2,3-dihydro-1H-indol-6-yl]-acetamide], 15.8 µM. The figure for `CCc1ccc2c(c1)/C(=C\c1cc(C(C)C)c(OC)c(C(C)C)c1)C(=O)N2` [Example 28, 3-(3,5-Diisopropyl-4-methoxbenzylidene)-5-ethyl-1,3-dihydroindol-2-one] is 16.9 µM; for `COc1ccc(C=C2C(=O)Nc3ccccc32)cc1-c1cccc(NC(C)=O)c1` [Example 29, N-[2′-Methoxy-5′-(2-oxo-1,2-dihydroindol-3-ylidenemethyl)-biphenyl-3-yl]-acetamide] it is 17.1 µM.

Broadly, the IC50 is the concentration needed to halve the response being measured.

The values above are taken from US6855730B2, “3-methylidenyl-2-indolinone modulators of protein kinase” (Sugen, Inc., priority 1998, dated 2005).
